The assay addresses T1, human LPAR1 (Homo sapiens, UniProt Q92633).
T1 construct: host or cells: TangoEDG2-bla U2OS cells
Briefly: Arrestin assay (Arrestin Reporter EDG2-bla U2OS), inhibition of LPA-stimulated signal. It is filed as cell-based. Particulars: TangoEDG2-bla U2OS cells expressing human LPAR1; 0.25 μM LPA; read-out: Arrestin Reporter EDG2-bla U2OS Human Merged IC50. As for the experimental part:
The inhibitory activity of compounds 15, 62, 77, 84 and 169 against LPAR1 was measured using an Arrestin assay in U2OS cells expressing human LPAR1.
FreeStyle media was warmed in a 37° C. water bath. Cryo-preserved vial(s) of TangoEDG2-bla U2OS cells were rapidly thawed in a 37° C. water bath. The thawed cells were added to FreeStyle media and cells were pelleted at 300×g for 5 minutes. The supernatant was aspirated, and cells were resuspended in FreeStyle media. Cell density was adjusted to 0.25×10^6 cells/mL. Cells (1×10^4 in 40 μL) were added to each well of Greiner 384 well black cell plate(s). Cell plate(s) were placed in a humidified 37° C./5% CO2 incubator for 18-20 hours. Dilutions of test compound were prepared at 6× final concentration; 12-point, 3-fold dilutions using HH Buffer (1×HBSS plus 20 mM HEPES). The 6× test compound was then added to the cell plate(s) at 10 μL/well. The final concentration ranged from 10 μM to 0.00006 μM. Cell plate(s) were incubated in a humidified 37° C./5% CO2 incubator for 1 hour. During the incubation, 6×LPA was prepared at 1.5 μM in 0.1% BSA HH Buffer. After the 1-hour incubation of test compound with cells, the LPA was added to the cell plate(s) at 10 μL/well (final LPA concentration of 0.25 μM). Cell plate(s) were returned to a humidified 37° C./5% CO2 incubator for 3 hours. The Development solution was made up per the LiveBLAzerFRET B/G kit protocol. The Development solution was added to the cell plate(s) at 10 μL/well. Cell plates were incubated in the dark at room temperature for 2 hours. Plate(s) were read on an Envision Plate Reader (Perkin Elmer) to read fluorescence; excitation at 409 nm with emission at 460 nm and 530 nm. Raw Data for analysis is the ratio of emission at 460 nm divided by emission 530 nm. The formula used to determine % Inhibition is as follows (1−(Raw Data−Low Average)/(High Average−Low Average))*100. Percent Inhibition was plotted to determine IC50 value with GraphPad Prism 9.5.0 software using Variable slope 4-parameter curve fit analysis.
Additional compounds of the present disclosure were synthesized in a manner similar to the compounds described above and understood by a person of ordinary skill in the art. The inhibitory activity of the compounds of the present disclosure against LPAR1 was measured using the above-referenced Arrestin Assay protocol.

T1 sequence (Q92633 whole entry): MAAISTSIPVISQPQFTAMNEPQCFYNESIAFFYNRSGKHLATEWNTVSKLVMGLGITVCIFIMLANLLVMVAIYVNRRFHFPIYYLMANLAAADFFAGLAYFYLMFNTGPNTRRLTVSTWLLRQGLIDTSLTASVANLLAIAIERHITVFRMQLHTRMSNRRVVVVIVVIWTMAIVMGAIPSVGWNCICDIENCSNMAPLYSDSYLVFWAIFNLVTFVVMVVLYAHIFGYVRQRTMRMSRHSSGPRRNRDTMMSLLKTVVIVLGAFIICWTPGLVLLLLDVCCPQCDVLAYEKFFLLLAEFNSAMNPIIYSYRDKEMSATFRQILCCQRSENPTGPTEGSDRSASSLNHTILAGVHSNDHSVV

A word on the IC50: it is the midpoint of a concentration-inhibition curve. Consider `CC(C)c1ccnn1C1(C(=O)Nc2ccc(Cl)cc2OC(F)F)CCN(CC(CN2CCOCC2)C(=O)O)CC1` (stereo not shown) [Compound 125, 2-[[4-[[4-chloro-2-(difluoromethoxy)phenyl]carbamoyl]-4-(5-isopropylpyrazol-1-yl)-1-piperidyl]methyl]-3-morpholino-propanoic acid], for which the IC50 came to 0.113 µM.

Take `CC(C)c1ccnn1C1(C(=O)Nc2ccc(Cl)cc2OC(F)F)CCN(CC2(C(=O)O)CCN(C(=O)C3CCOCC3)CC2)CC1` [Compound 71, 4-[[4-[[4-chloro-2-(difluoromethoxy)phenyl]carbamoyl]-4-(5-isopropylpyrazol-1-yl)-1-piperidyl]methyl]-1-(tetrahydropyran-4-carbonyl)piperidine-4-carboxylic acid]: the 50% inhibitory concentration (IC50) amounted to 0.105 µM.

For `CC(C)c1ccnn1C1(C(=O)Nc2ccc(Cl)cc2OC(F)F)CCN(C2CC(O)(C(=O)O)C2)CC1` (stereo not shown) [Compound 121, 3-[4-[[4-chloro-2-(difluoromethoxy)phenyl]carbamoyl]-4-(5-isopropylpyrazol-1-yl)-1-piperidyl]-1-hydroxy-cyclobutanecarboxylic acid], the 50% inhibitory concentration (IC50) stood at 0.0488 µM.

Consider `CCOC(=O)N1CC[C@@](CN2CCC(C(=O)Nc3ccc(Cl)cc3OC(F)F)(n3nccc3C(C)C)CC2)(C(=O)O)C1` [Compound 55, (3S)-3-[[4-[[4-chloro-2-(difluoromethoxy)phenyl]carbamoyl]-4-(5-isopropylpyrazol-1-yl)-1-piperidyl]methyl]-1-ethoxycarbonyl-pyrrolidine-3-carboxylic acid], for which the half-maximal inhibitory concentration (IC50) is 0.00457 µM.

As for `CCOC(CN1CCC(C(=O)Nc2ccc(Cl)cc2OC(F)F)(n2nccc2C(C)C)CC1)C(=O)O` (stereo not shown) [Compound 134, 3-[4-[[4-chloro-2-(difluoromethoxy)phenyl]carbamoyl]-4-(5-isopropylpyrazol-1-yl)-1-piperidyl]-2-ethoxy-propanoic acid], the IC50 came out at 0.0715 µM.

As for `CC(C)c1ccnn1C1(C(=O)Nc2ccc(Cl)cc2OC(F)F)CCN([C@H]2C[C@@]3(C[C@@H]3C(=O)O)C2)CC1` [Compound 127, (1S,3r,5R)-5-[4-[[4-chloro-2-(difluoromethoxy)phenyl]carbamoyl]-4-(5-isopropylpyrazol-1-yl)-1-piperidyl]spiro[2.3] hexane-2-carboxylic acid], the IC50 turned out to be 0.0319 µM.

Regarding `CC(C)c1ccnn1C1(C(=O)Nc2ccc(Cl)cc2OC(F)F)CCN([C@H]2C[C@@H](CC(=O)O)C2)CC1` [Compound 94, (1s,3s)-2-[3-[4-[[4-chloro-2-(difluoromethoxy)phenyl]carbamoyl]-4-(5-isopropylpyrazol-1-yl)-1-piperidyl]cyclobutyl] acetic acid], the IC50 stood at 0.0408 µM.

As to `CC(C)c1ccnn1C1(C(=O)Nc2ccc(Cl)cc2OC(F)F)CCN(CC2(C(=O)O)CC3(COC3)C2)CC1` [Compound 40, 6-[[4-[[4-chloro-2-(difluoromethoxy)phenyl]carbamoyl]-4-(5-isopropylpyrazol-1-yl)-1-piperidyl]methyl]-2-oxaspiro[3.3]heptane-6-carboxylic acid], the IC50 stood at 0.0225 µM.

For `CC(C)c1ccnn1C1(C(=O)Nc2ccc(Cl)cc2OC(F)F)CCN(CC2(C(=O)O)CCOC2)CC1` (stereo not shown) [Compound 16, 3-[[4-[[4-chloro-2-(difluoromethoxy)phenyl]carbamoyl]-4-(5-isopropylpyrazol-1-yl)-1-piperidyl]methyl] tetrahydrofuran-3-carboxylic acid], the concentration for half-maximal inhibition (IC50) is 0.0298 µM.

As to `CC(C)c1ccnn1C1(C(=O)Nc2ccc(Cl)cc2OC(F)F)CCN([C@H]2C[C@@H](C(=O)O)C2)CC1` (single isomer, unassigned) [Compound 61, (1s,3s)-3-[4-[[4-chloro-2-(difluoromethoxy)phenyl]carbamoyl]-4-(5-isopropylpyrazol-1-yl)-1-piperidyl]cyclobutanecarboxylic acid], the half-inhibitory concentration (IC50) was determined as 0.0345 µM.

With `CC(C)c1ccnn1C1(C(=O)Nc2ccc(Cl)cc2OC(F)F)CCN(C[C@H](COCC(F)(F)F)C(=O)O)CC1` [Compound 234, (2R)-2-[[4-[[4-chloro-2-(difluoromethoxy)phenyl]carbamoyl]-4-(5-isopropylpyrazol-1-yl)-1-piperidyl]methyl]-3-(2,2,2-trifluoroethoxy)propanoic acid], the concentration for half-maximal inhibition (IC50) was found to be 0.00954 µM.

For `CC(C)c1ccnn1C1(C(=O)Nc2ccc(Cl)cc2OC(F)F)CCN(CC2(C(=O)O)CCN(C(=O)Oc3ccc(F)cc3)CC2)CC1` [Compound 10, 4-[[4-[[4-chloro-2-(difluoromethoxy)phenyl]carbamoyl]-4-(5-isopropylpyrazol-1-yl)-1-piperidyl]methyl]-1-(4-fluorophenoxy)carbonyl-piperidine-4-carboxylic acid], the IC50 was found to be 0.00753 µM.

On to `CC(C)c1ccnn1C1(C(=O)Nc2ccc(Cl)cc2OC(F)F)CCN(Cc2c(C(=O)O)nnn2C)CC1` [Compound 179, 5-[[4-[[4-chloro-2-(difluoromethoxy)phenyl]carbamoyl]-4-(5-isopropylpyrazol-1-yl)-1-piperidyl]methyl]-1-methyl-triazole-4-carboxylic acid], for which the IC50 is 0.174 µM.

Take `CC(C)c1ccnn1C1(C(=O)Nc2ccc(Cl)cc2OC(F)F)CCN(CC2(C(=O)O)CCS(=O)(=O)CC2)CC1` [Compound 65, 4-[[4-[[4-chloro-2-(difluoromethoxy)phenyl]carbamoyl]-4-(5-isopropylpyrazol-1-yl)-1-piperidyl]methyl]-1,1-dioxo-thiane-4-carboxylic acid]: the IC50 was 0.00987 µM.

In the case of `CO[C@H]1C[C@H]([C@H](CN2CCC(C(=O)Nc3ccc(Cl)cc3OC(F)F)(n3nccc3C(C)C)CC2)C(=O)O)C1` [Compound 229, (2R)-3-[4-[[4-chloro-2-(difluoromethoxy)phenyl]carbamoyl]-4-(5-isopropylpyrazol-1-yl)-1-piperidyl]-2-((1r,3R)-3-methoxycyclobutyl) propanoic acid], the IC50 was determined as 0.0292 µM.

With `CC(C)c1ccnn1C1(C(=O)Nc2ccc(Cl)cc2OC(F)F)CCN(CCC(C)(C)C(=O)O)CC1` [Compound 2, 4-[4-[[4-chloro-2-(difluoromethoxy)phenyl]carbamoyl]-4-(5-isopropylpyrazol-1-yl)-1-piperidyl]-2,2-dimethyl-butanoic acid], the half-maximal inhibitory concentration (IC50) came to 0.0503 µM.

Turning to `CCC(=O)N1CCC(CN2CCC(C(=O)Nc3ccc(Cl)cc3OC(F)F)(n3nccc3C(C)C)CC2)(C(=O)O)CC1` [Compound 41, 4-[[4-[[4-chloro-2-(difluoromethoxy)phenyl]carbamoyl]-4-(5-isopropylpyrazol-1-yl)-1-piperidyl]methyl]-1-propanoyl-piperidine-4-carboxylic acid], the IC50 is 0.0228 µM.

For the compound `COc1cccc([C@@H](CN2CCC(C(=O)Nc3ccc(Cl)cc3OC(F)F)(n3nccc3C(C)C)CC2)C(=O)O)c1` [Compound 33, (2S)-3-[4-[[4-chloro-2-(difluoromethoxy)phenyl]carbamoyl]-4-(5-isopropylpyrazol-1-yl)-1-piperidyl]-2-(3-methoxyphenyl)propanoic acid], the IC50 amounted to 0.00513 µM.

Take `CC(C)c1ccnn1C1(C(=O)Nc2ccc(Cl)cc2OC(F)F)CCN(CC(C(=O)O)N2CCOCC2)CC1` (stereo not shown) [Compound 116, 3-[4-[[4-chloro-2-(difluoromethoxy)phenyl]carbamoyl]-4-(5-isopropylpyrazol-1-yl)-1-piperidyl]-2-morpholino-propanoic acid]: the IC50 stood at 0.129 µM.

With `CC(C)c1ccnn1C1(C(=O)Nc2ccc(Cl)cc2OC(F)F)CCN(C[C@@H](C)C(=O)O)CC1` [Compound 86, (2R)-3-[4-[[4-chloro-2-(difluoromethoxy)phenyl]carbamoyl]-4-(5-isopropylpyrazol-1-yl)-1-piperidyl]-2-methyl-propanoic acid], the IC50 was 0.0202 µM.

`COC1(C(=O)O)CC(N2CCC(C(=O)Nc3ccc(Cl)cc3OC(F)F)(n3ncc(F)c3C(C)C)CC2)C1` (stereo not shown) [Compound 199, 3-[4-[[4-chloro-2-(difluoromethoxy)phenyl]carbamoyl]-4-(4-fluoro-5-isopropyl-pyrazol-1-yl)-1-piperidyl]-1-methoxy-cyclobutanecarboxylic acid]: the IC50 is 0.0404 µM.

Regarding `CC(C)c1ccnn1C1(C(=O)Nc2ccc(Cl)cc2OC(F)F)CCN(CC2(C(=O)O)CCCCO2)CC1` (stereo not shown) [Compound 30, 2-[[4-[[4-chloro-2-(difluoromethoxy)phenyl]carbamoyl]-4-(5-isopropylpyrazol-1-yl)-1-piperidyl]methyl] tetrahydropyran-2-carboxylic acid], the concentration for half-maximal inhibition (IC50) came out at 0.0126 µM.

(Values after patent publication US20260102383A1, “LPAR1 Inhibitors” (AbbVie Inc., priority 2024, published 2026).)
